One series is described as follows: Hypotensive action. The series is classed as in vivo. The settings on record: for dose showing hypotensive action: in vivo.
A short description of series [1]: Effect on cerebral blood flow in cats. Format: in vivo. The following applies: cats weighing about 3 kg. An excerpt:
(§1) The action on cerebral blood flow and muscular blood flow was examined with cats weighing about 3 kg.

Series [2] can be described thus: Effect on muscular blood flow in cats. The series is classed as in vivo. The following applies: cats weighing about 3 kg.
Text: as §1

For series [3], the system named is Vessels excised from guinea-pigs. Put plainly: Inhibition of adrenalin-induced contraction of isolated smooth muscle (vessels excised from guinea-pigs). The settings on record: contracting substance Adrenalin 2.86×10^-6 g/ml; effective concentration 1×10^-5 g/ml.
In series [4] the test system is Small intestine excised from guinea-pigs. Put plainly: Inhibition of histamine-induced contraction of isolated smooth muscle (small intestine excised from guinea-pigs). The following applies: contracting substance Histamine 1.00×10^-7 g/ml; effective concentration 1×10^-4 g/ml.
For series [5] the test system is unchanged. Put plainly: Inhibition of BaCl2-induced contraction of isolated smooth muscle (small intestine excised from guinea-pigs). The following applies: contracting substance BaCl2 2.00×10^-3 g/ml; effective concentration 1×10^-4 g/ml.
Series [6] shares this test system. Put plainly: Inhibition of acetylcholine-induced contraction of isolated smooth muscle (small intestine excised from guinea-pigs). The settings on record: contracting substance Acethylcholine 5.43×10^-4 g/ml; effective concentration 8.75×10^-6 g/ml.
Another series relates to isolated smooth muscle. Put plainly: Effect on contraction of isolated smooth muscle, overall. More on the design: species or system guinea-pigs.
The nature of the next series: in vivo. The following applies: for LD50: mouse, in vivo.
The nature of series [7]: Solubility in aqueous solution of tartaric acid (aptitude test as an injection). The series is classed as physicochemical. The following applies: 0.25 weight percent. As to the method:
For the purpose of examining the solubility of the new compound N-(1-adamantyl methyl)-N'-cinnamyl piperazine in an aqueous solution of tartaric acid, the aqueous solutions in which 2, 4, 6 and 8 times molar of tartaric acid based on 1 mol of the new compound were contained were prepared and the compound was added so that its concentration should be 0.25 weight percent to each aqueous solution. Each aqueous solution was heated to 80° C and allowed to cool to a room temperature (about 20° C), then the solubility was evaluated. […] In addition, the pH value of 0.25 weight percent aqueous solution of the compound prepared by using 2 times mol of tartaric acid based on 1 molar of the compound was 3.10 and when an alkali was added to the aqueous solution, crystals began to separate at pH 3.80.

A short description of series [8]: Stability in aqueous solution of tartaric acid. Format: physicochemical. As to the method:
After heating a 0.25 weight percent aqueous solution of the new compound N-(1-adamantyl methyl)-N'-cinnamyl piperazine prepared by using 2 times mol of tartaric acid based on 1 mol of this compound, the solution was allowed to cool to a room temperature (about 20° C). Then, the pH value was adjusted to 8-9 with 1/10 N aqueous solution of sodium hydroxide.

Where [9] appears, read: 0.25 weight percent, 2 times mol tartaric acid, heated, cooled, pH adjusted to 8-9, room temperature for 7 days.

Entries after “also recorded” stand apart in the source; their conditions may differ. Bounds are passed on as bounds.

In the case of `C(=C\c1ccccc1)/CN1CCN(C(c2ccccc2)c2ccccc2)CC1` [Cinnarizine, reference compound], the “dose showing hypotensive action” value in “Hypotensive action” was 0.5 mg/kg.
For `C(=C\c1ccccc1)/CN1CCN(CC23CC4CC(CC(C4)C2)C3)CC1` [N-(1-adamantylmethyl)-N'-cinnamyl piperazine], the “blood flow of cerebral cortex” value in series [1] (1 mg/kg) was “clearly increased blood flow of cerebral cortex”. Moreover, the “action on blood flow of cerebral cortex compared with Cinnarizine” value in series [1] (versus Cinnarizine 1 mg/kg) is recorded as “more significant than that induced by Cinnarizine”. For the same compound, the “blood flow of gastrocnemius muscle” value in [2] is reported as “clearly increased blood flow of gastrocnemius muscle”. In addition, the “action on blood flow of gastrocnemius muscle compared with Cinnarizine” value in [2] (versus Cinnarizine) is listed as “more significant than that of Cinnarizine”. Besides, the “side effects such as an excessive hypotension” value in “Hypotensive action” (general statement) is “little side effects such as an excessive hypotension”. In “Hypotensive action”, the “dose showing hypotensive action” value is recorded as above 5 mg/kg. Further, the “hypotensive action compared with Cinnarizine” value in the series “Hypotensive action” (versus Cinnarizine) was “clearly weaker than that of Cinnarizine”. Moreover, the Inhibitory rate was determined as 3.10% in [3], 95.0% in [4], 77.23% in series [5] and 25.0% in series [6]. Further, in the series on isolated smooth muscle, the “smooth muscle relaxing action” value is on record as “recognized to possess smooth muscle relaxing action”. Moreover, the toxicity result in the series “in vivo” (general statement) was “low toxicity; also recorded: very low toxicity compared with conventional cerebral vasodilators”. Moreover, the median lethal dose (LD50) in the series “in vivo” (iv) is 78.8 mg/kg; in the series “in vivo” (po), above 10000 mg/kg. Further, in [7] (2 times mol of tartaric acid), the “pH value of aqueous solution” value is reported as 3.10. The “pH at which crystals began to separate” value in [7] (2 times mol of tartaric acid, alkali added) was 3.80. Moreover, the solubility result in series [7] (aqueous tartaric acid, 2, 4, 6 and 8 times molar, heated to 80° C, cooled to about 20° C) is “soluble in all of the above aqueous solutions of tartaric acid”. Moreover, in series [8] (setting [9]), the “change in infrared absorption spectrum and nuclear magnetic resonance spectrum” value was “No change”. For the same compound, in series [8] (setting [9]), the “stability by thin layer chromatography” value was “unaffected”. The “stability against heat, alkali and acid” value in [8] (general statement) is “good stability against heat, alkali and acid; also recorded: high stability against heat, alkali and acid”. For the same compound, the “stability in an aqueous solution of tartaric acid” value in series [8] (overall conclusion) is on record as “exist stably in an aqueous solution of tartaric acid”.

The values above are taken from patent publication US4001223A, “Adamantane-piperazine derivatives” (Idemitsu Kosan Co., Ltd., priority 1975, dated 1977).
